Measurements: US9210928B2, “Plant development control composition” (Syngenta Crop Protection, LLC, priority 2008, dated 2015)
Entries after “also recorded” stand apart in the source; their conditions may differ.

Legend:
[1] = molecular target: T1, AtCCD7 (Arabidopsis thaliana, UniProt Q7XJM2); test: In vivo enzyme assay in β-carotene-producing E. coli expressing AtCCD7; type: cell-based; conditions: 100 μM inhibitor, 16 hours; FIG. 4
T1 construct: expressed in transfected cells; host or cells: E. coli BL21(DE3) harbouring pAC-BETA
T1 sequence (Q7XJM2 32-618): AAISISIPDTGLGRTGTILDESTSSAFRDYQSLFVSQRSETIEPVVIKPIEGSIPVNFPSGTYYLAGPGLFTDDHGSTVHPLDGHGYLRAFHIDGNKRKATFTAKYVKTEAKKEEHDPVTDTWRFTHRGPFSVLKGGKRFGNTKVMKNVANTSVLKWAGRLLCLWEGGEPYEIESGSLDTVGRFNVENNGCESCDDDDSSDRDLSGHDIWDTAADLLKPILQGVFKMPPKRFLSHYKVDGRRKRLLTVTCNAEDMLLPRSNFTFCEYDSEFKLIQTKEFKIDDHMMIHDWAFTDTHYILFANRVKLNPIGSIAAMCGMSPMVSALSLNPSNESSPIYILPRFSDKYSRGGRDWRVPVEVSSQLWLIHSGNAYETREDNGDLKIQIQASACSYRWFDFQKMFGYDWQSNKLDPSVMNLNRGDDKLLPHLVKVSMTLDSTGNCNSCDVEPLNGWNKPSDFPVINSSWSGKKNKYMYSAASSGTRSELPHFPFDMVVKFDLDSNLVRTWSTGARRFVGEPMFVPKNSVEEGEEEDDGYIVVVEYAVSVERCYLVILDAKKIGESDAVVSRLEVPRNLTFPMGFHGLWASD
From the text: In vivo enzyme assays in E. coli—The genes of interest (supplemental Table S1) were cloned into the vector pET30c (Novagen) fused directly to the initial ATG codon with no tag, or into pGEX-4T such that the gene was fused to an N-terminal GST tag. All genes were full length except AtCCD7, which had the chloroplast signal sequence removed (supplemental methods). […] Therefore, this construct was used in subsequent assays. The plasmids were transferred to the E. coli expression strain BL21(DE3), harbouring pAC-BETA (38), and therefore producing β-carotene.
For each inhibitor assay, 2.5 ml LB media with the appropriate antibiotics (25 μg ml^−1 chloramphenicol and 50 μg ml^−1 kanamycin or 100 μg ml^−1 ampicillin) and 2.5 μM IPTG, was prepared. Inhibitors (0.1 M in 100% ethanol) were added to the media to a final concentration of 100 μM. The media was then inoculated with 0.25 ml of overnight culture (grown at 37° C. with the appropriate antibiotics) and incubated with shaking (200 rpm) at 28° C. for 16 hours. One ml of culture was harvested by microcentrifugation and resuspended thoroughly in 1 ml ethanol containing 0.2% Triton X-100. […] The supernatant was removed and the O.D.453-O.D.550 was measured. The amount of β-carotene was calculated using a standard curve generated from a dilution series of β-carotene (Sigma) in ethanol with 0.2% Triton X-100; the absolute levels of β-carotene are shown in FIG. 8. The relative inhibition was calculated by the equation: (Ci−Cc)/(C1−Cc)×100, where Ci is the carotenoid level with inhibitor and CCD present, Cc is the level with CCD but without the inhibitor and C1 is the level in a strain where lacZ is expressed instead of the CCD, and no inhibitor is present. […]
In vivo activity of inhibitors applied to E. coli strains expressing CCDs—Coloured E. coli strains that produce various carotenoids can be constructed by expression of enzymes for carotenoid synthesis (26). […] The difference in the carotenoid levels gave a measure of CCD activity, and inhibition of this activity was measured by addition of inhibitors to the growing medium. […]

[2] = test system: whole Arabidopsis plants; test: Shoot branching in whole Arabidopsis plants grown in agar; type: in vivo; conditions: applied to whole plants
Experimental: Branching phenotypes of Arabidopsis plants grown in agar media for 45 days supplemented with inhibitor D6. Images are shown: (a) Col-0 (WT) without inhibitor; (b) max3-9 mutant without inhibitor; (c) Col-0 with 100 μM D6. The numbers (d) of rosette branches were quantified. Error bars represent standard error of the mean, n=6 to 12.
Stimulation of shoot branching in whole Arabidopsis plants—Inhibitors were also applied to Arabidopsis whole plants grown under sterile conditions in agar. […] Inhibitor treated plants were intermediate (mean of approximately 2 branches) and so partially mimicked max3-9 (FIG. 6d).

Structure (SMILES)	relative inhibition of AtCCD7 in E. coli (in words) [1]	unintended effects on whole Arabidopsis plants [2]
COc1ccc(C(=O)N(O)Cc2ccc(F)cc2)cc1 [Compound F2, N-(4-fluorobenzyl)-4-methoxybenzoyl hydroxamic acid]	poor inhibition; also recorded: relatively small activity; also recorded: relatively ineffective against AtCCD7; also recorded: poor inhibitors against AtCCD7	caused bleaching of leaves
COc1ccc(C(=O)N(O)Cc2ccccc2)cc1 [Compound F1, N-benzyl-4-methoxybenzoyl hydroxamic acid]	poor inhibition; also recorded: relatively small activity; also recorded: relatively ineffective against AtCCD7; also recorded: poor inhibitors against AtCCD7	caused bleaching of leaves
COc1ccc(C(=O)N(O)Cc2ccccc2)cc1OC [Compound F3, N-benzyl-3,4-dimethoxybenzoyl hydroxamic acid]	inactive	–
